In patent US5736529A, “Use of NAD-related compounds in the treatment of neural trauma to inhibit neurodegeneration” (priority 1996, dated 1998):
“Also recorded” adds a separate entry of the source.

Experiments:
xanthine oxidase = settings: previous studies; cited from earlier work
[1] = tested on: dopaminergic neurons in the midbrain; assay: Apoptosis in MPTP treated mice (In Situ Apoptosis Detection Kit, tyrosine hydroxylase staining); format: in vivo, mouse (C57BL/6); settings: MPTP 25 mg/kg ip twice; 48 hours
Description: After 48 hours the mice were perfused through the left ventricle with phosphate buffered saline (PBS) and then with 4% formaldehyde and 0.2% glutaraldehyde in PBS. The brains were coronally sliced into 50μ sections in a vibrating microtome.
To detect individual cells undergoing apoptosis, the In Situ Apoptosis Detection Kit (Oncor) was used. In this method, the fragmented DNA ends are extended with digoxigenin-dUTP. An anti-digoxigenin antibody then binds to the extension and is detected by a peroxidase reaction as previously described.
Tyrosine hydroxylase staining was done to identify dopaminergic neurons in the substantia nigra. The IgG polyclonal antibodies used were: a rabbit antibody to tyrosine hydroxylase; a sheep antibody to rabbit IgG and a rabbit antibody to horseradish peroxidase with the horseradish peroxidase coupled to the antibody^22. The tyrosine hydroxylase-stained brain slices were mounted on glass slides, dehydrated and coverslipped with balsam.

[2] = tested on: DNA in midbrain and striatum of C57BL/6 mice; assay: Fluorimetric assay of DNA fragmentation in MPTP treated mice (Table 7); format: in vivo, mouse (C57BL/6); settings: for DNA damage, MIDBRAIN: MPTP 25 mg/kg ip twice, mean ± S.D.
From the text: A fifth group was the control. Brains were removed and the midbrain and striatum isolated.

[3] = tested on: hydroxyl radicals generated by the addition of 0.4M hydrogen peroxide; assay: Quenching of hydroxyl radicals (EPR); settings: 0.1M nicotinamide
Description: (§1) EPR spectra were measured at 23° and 100 kHz in a Bruker model ECS 106 spectrometer (Bruker, Karlsruhe, Germany). The EPR conditions were: modulation amplitude 0.483G, microwave power 20 mW and time constant 1.3 seconds.

[4] = tested on: superoxide radicals produced by xanthine oxidase; assay: Quenching of superoxide radicals (EPR); settings: 0.1M nicotinamide
Description: as §1

ATP = settings: known effect of nicotinamide; cited from earlier work
[5] = tested on: poly(ADP-ribose) polymerase (PADPRP); settings: cited from earlier work
24 month old mice = settings: mouse, in vivo, 500 mg/kg

C[n+]1ccc(-c2ccccc2)cc1 [MPP+]
substrate for xanthine oxidase (xanthine oxidase): can act as a substrate for xanthine oxidase

CN1CC=C(c2ccccc2)CC1 [MPTP, 1-methyl-4-phenyl-1,2,3,6-tetrahydropyridine]
apoptotic cells in dopaminergic neurons in the midbrain [1]: Apoptotic cells with shrunken and fragmented nuclei were detected | DNA fragmentation in the midbrain ([2]; 25 mg/kg MPTP twice, 48 hours, p<0.05): Significant DNA fragmentation | DNA damage, MIDBRAIN ([2]; 2 hours): 0.9108 ± 0.2233 per gram of tissue | DNA damage, MIDBRAIN ([2]; 48 hours, * p<0.05 vs control): 1.6373 ± 0.4567 per gram of tissue

NC(=O)c1cccnc1 [nicotinamide]
quenching of hydroxyl radicals [3]: able to quench hydroxyl radicals | quenching of superoxide radicals [4]: able to quench superoxide radicals | ATP levels (ATP): elevate NAD levels and ATP levels | inhibition of poly(ADP-ribose) polymerase [5]: inhibits poly(ADP-ribose) polymerase; also recorded: weak inhibitor | deaths (24 month old mice): one out of six
